In ChEMBL document CHEMBL1133821, “Synthesis and antiinflammatory, analgesic activity of 3,3'-(1,2-ethanediyl)-bis[2-aryl-4-thiazolidinone] chiral compounds. Part 10” (Bioorg Med Chem Lett, 2001):

Columns and labels:
Rattus norvegicus [1] = assay: Animals with Ulcers in Carrageenan-induced paw edema test at a dose of 100 mg/kg perorally in rats; assay type: functional; conditions: route oral
Rattus norvegicus [2] = assay: Percent Edema variation in Carrageenan-induced paw edema test at a dose of 100 mg/kg perorally in rats after 60 min; assay type: functional; conditions: route oral
Rattus norvegicus [3] = assay: Percent Edema variation in Carrageenan-induced paw edema test at a dose of 100 mg/kg perorally in rats after 180 min (p<0.01); assay type: functional; conditions: route oral
Rattus norvegicus [4] = assay: Percent Edema variation in Carrageenan-induced paw edema test at a dose of 100 mg/kg perorally in rats after 120 min; assay type: functional; conditions: route oral
[5] = Minimum concentration which causes 50% of the Artemia salina larvae to lose mobility; assay type: ADME, organism-based; conditions: in vivo
Rattus norvegicus [6] = assay: Animals with Hyperemia in Carrageenan-induced paw edema test at a dose of 100 mg/kg perorally in rats; assay type: functional; conditions: route oral
[7] = Peroral dose causing 50% death of the mice population; assay type: ADME, organism-based; conditions: mouse, in vivo, po
Rattus norvegicus [8] = assay: Reaction time in Hot plate test at a dose of 100 mg/kg perorally in rats after 120 min (p<0.01); assay type: functional; conditions: route oral
Rattus norvegicus [9] = assay: Reaction time in Hot plate test at a dose of 100 mg/kg perorally in rats after 180 min (p<0.05); assay type: functional; conditions: route oral
Rattus norvegicus [10] = assay: Number of writhings in Acetic acid Writhing test at a dose of 100 mg/kg perorally in rats; assay type: functional; conditions: route oral
Rattus norvegicus [11] = assay: Analgesic activity was determined using acetic acid writing test at a dose of 100 mg/kg perorally in rats. (p<0.01); assay type: functional; conditions: route oral
Rattus norvegicus [12] = assay: Reaction time in Hot plate test at a dose of 100 mg/kg perorally in rats after 60 min (p<0.01); assay type: functional; conditions: route oral
Rattus norvegicus [13] = assay: Percent Edema variation in Carrageenan-induced paw edema test at a dose of 100 mg/kg perorally in rats after 180 min (p<0.001); assay type: functional; conditions: route oral
Rattus norvegicus [14] = assay: Percent Edema variation in Carrageenan-induced paw edema test at a dose of 100 mg/kg perorally in rats after 120 min (p<0.05); assay type: functional; conditions: route oral
Rattus norvegicus [15] = assay: Percent Edema variation in Carrageenan-induced paw edema test at a dose of 100 mg/kg perorally in rats after 180 min; assay type: functional; conditions: route oral
Rattus norvegicus [16] = assay: Reaction time in Hot plate test at a dose of 100 mg/kg perorally in rats after 120 min (p<0.05); assay type: functional; conditions: route oral
Rattus norvegicus [17] = assay: Reaction time in Hot plate test at a dose of 100 mg/kg perorally in rats after 60 min (p<0.05); assay type: functional; conditions: route oral
Rattus norvegicus [18] = assay: Analgesic activity was determined using acetic acid writing test at a dose of 100 mg/kg perorally in rats.(p<0.05); assay type: functional; conditions: route oral
Rattus norvegicus [19] = assay: Reaction time in Hot plate test at a dose of 100 mg/kg perorally in rats after 180 min; assay type: functional; conditions: route oral
Rattus norvegicus [20] = assay: Analgesic activity was determined using acetic acid writing test at a dose of 100 mg/kg perorally in rats.; assay type: functional; conditions: route oral
Rattus norvegicus [21] = assay: Reaction time in Hot plate test at a dose of 100 mg/kg perorally in rats after 60 min; assay type: functional; conditions: route oral
Rattus norvegicus [22] = assay: Reaction time in Hot plate test at a dose of 100 mg/kg perorally in rats after 120 min; assay type: functional; conditions: route oral
Rattus norvegicus [23] = assay: Percent Edema variation in Carrageenan-induced paw edema test at a dose of 100 mg/kg perorally in rats after 60 min (p<0.01); assay type: functional; conditions: route oral
Rattus norvegicus [24] = assay: Animals with Hyperemia in Carrageenan-induced paw edema test at a dose of 5 mg/kg perorally in rats; assay type: functional; conditions: route oral
Rattus norvegicus [25] = assay: Analgesic activity was determined using acetic acid writing test at a dose of 5 mg/kg perorally in rats. (p<0.01); assay type: functional; conditions: route oral
Rattus norvegicus [26] = assay: Number of writhings in Acetic acid Writhing test at a dose of 5 mg/kg perorally in rats; assay type: functional; conditions: route oral
Rattus norvegicus [27] = assay: Percent Edema variation in Carrageenan-induced paw edema test at a dose of 5 mg/kg perorally in rats after 120 min; assay type: functional; conditions: route oral
Rattus norvegicus [28] = assay: Percent Edema variation in Carrageenan-induced paw edema test at a dose of 5 mg/kg perorally in rats after 60 min; assay type: functional; conditions: route oral
Rattus norvegicus [29] = assay: Animals with Ulcers in Carrageenan-induced paw edema test at a dose of 5 mg/kg perorally in rats; assay type: functional; conditions: route oral
Rattus norvegicus [30] = assay: Reaction time in Hot plate test at a dose of 5 mg/kg perorally in rats after 120 min (p<0.01); assay type: functional; conditions: route oral
Rattus norvegicus [31] = assay: Reaction time in Hot plate test at a dose of 5 mg/kg perorally in rats after 60 min (p<0.01); assay type: functional; conditions: route oral
Rattus norvegicus [32] = assay: Reaction time in Hot plate test at a dose of 5 mg/kg perorally in rats after 180 min (p<0.01); assay type: functional; conditions: route oral
Rattus norvegicus [33] = assay: Percent Edema variation in Carrageenan-induced paw edema test at a dose of 5 mg/kg perorally in rats after 180 min (p<0.01); assay type: functional; conditions: route oral

Question: Which Animals (Rattus norvegicus [1]) does the source give for `COc1ccc(OC)c([C@H]2SCC(=O)N2CCN2C(=O)CS[C@H]2c2cc(OC)ccc2OC)c1` here?
Answer: Its Animals is 0%.

Question: What about the Edema variation (Rattus norvegicus [2]) of the same compound?
Answer: Its Edema variation is -12.48%.

Question: And the Edema variation (Rattus norvegicus [3])?
Answer: Its Edema variation is -39.06%.

Question: And the Edema variation (Rattus norvegicus [4])?
Answer: The Edema variation was -13.5%.

Question: What about the LC50 [5] of the same compound?
Answer: Its LC50 is greater than 1000 µg/mL.

Question: And the Animals (Rattus norvegicus [6])?
Answer: The Animals was 40%.

Question: And the LD50 [7]?
Answer: Its LD50 is greater than 1000 mg/kg.

Question: What does the source list for `COc1ccc(C2SCC(=O)N2CCN2C(=O)CSC2c2ccc(OC)c(OC)c2)cc1OC` (stereo not drawn)?
Answer: Animals (Rattus norvegicus [1]): 0%; Edema variation (Rattus norvegicus [2]): -2.13%; Reaction time (Rattus norvegicus [8]): 26.7 s; Reaction time (Rattus norvegicus [9]): 16.8 s; No. of writhings (Rattus norvegicus [10]): 9.6; inhibition in vivo at 100 mg/kg (Rattus norvegicus [11]): 53%; Reaction time (Rattus norvegicus [12]): 30.4 s; Edema variation (Rattus norvegicus [13]): -76.62%; LC50 [5]: > 1000 µg/mL; Animals (Rattus norvegicus [6]): 20%; Edema variation (Rattus norvegicus [14]): -30.13%; LD50 [7]: > 1000 mg/kg

Question: Which Animals (Rattus norvegicus [1]) does the source give for `COc1ccc(OC)c(C2SCC(=O)N2CCN2C(=O)CSC2c2cc(OC)ccc2OC)c1` (stereo not drawn) here?
Answer: The Animals was 0%.

Question: And the Edema variation (Rattus norvegicus [2])?
Answer: Its Edema variation is 33.55%.

Question: What about the Edema variation (Rattus norvegicus [15]) of the same compound?
Answer: The Edema variation was -70.22%.

Question: And the Edema variation (Rattus norvegicus [4])?
Answer: The Edema variation was -24.62%.

Question: What about the LC50 [5] of the same compound?
Answer: Its LC50 is greater than 1000 µg/mL.

Question: And the Animals (Rattus norvegicus [6])?
Answer: The Animals was 40%.

Question: What about the LD50 [7] of the same compound?
Answer: Its LD50 is greater than 1000 mg/kg.

Question: Which results are given for `O=C1CSC(c2ccc(Cl)c(Cl)c2)N1CCN1C(=O)CSC1c1ccc(Cl)c(Cl)c1` (stereo not drawn)?
Answer: Animals (Rattus norvegicus [1]): 0%; Reaction time (Rattus norvegicus [16]): 18.4 s; Edema variation (Rattus norvegicus [2]): 14.04%; Edema variation (Rattus norvegicus [15]): -27.48%; Reaction time (Rattus norvegicus [9]): 19.8 s; No. of writhings (Rattus norvegicus [10]): 15.2; LC50 [5]: > 1000 µg/mL; Animals (Rattus norvegicus [6]): 40%; Edema variation (Rattus norvegicus [14]): -31.41%; Reaction time (Rattus norvegicus [17]): 20 s; inhibition in vivo at 100 mg/kg (Rattus norvegicus [18]): 24%; LD50 [7]: > 1000 mg/kg

Question: What does the source list for `COc1ccc(C2SCC(=O)N2CCN2C(=O)CSC2c2ccc(OC)c(F)c2)cc1F` (stereo not drawn)?
Answer: Animals (Rattus norvegicus [1]): 0%; Reaction time (Rattus norvegicus [16]): 16.8 s; Edema variation (Rattus norvegicus [2]): 8.6%; Edema variation (Rattus norvegicus [3]): -38.94%; Edema variation (Rattus norvegicus [4]): -23.83%; No. of writhings (Rattus norvegicus [10]): 16.4; Reaction time (Rattus norvegicus [19]): 13.5 s; LC50 [5]: > 1000 µg/mL; Animals (Rattus norvegicus [6]): 20%; inhibition in vivo at 100 mg/kg (Rattus norvegicus [20]): 20%; Reaction time (Rattus norvegicus [21]): 13.4 s; LD50 [7]: > 1000 mg/kg

Question: For `COc1cccc(C2SCC(=O)N2CCN2C(=O)CSC2c2cccc(OC)c2)c1` (stereo not drawn), which Animals (Rattus norvegicus [1]) is on record?
Answer: The Animals was 0%.

Question: And the Edema variation (Rattus norvegicus [15])?
Answer: The Edema variation was -18.31%.

Question: And the Edema variation (Rattus norvegicus [4])?
Answer: Its Edema variation is -26.3%.

Question: And the Reaction time (Rattus norvegicus [22])?
Answer: Its Reaction time is 13 s.

Question: What about the No. of writhings (Rattus norvegicus [10]) of the same compound?
Answer: Its No. of writhings is 19.5.

Question: And the Edema variation (Rattus norvegicus [23])?
Answer: Its Edema variation is -34.4%.

Question: And the Reaction time (Rattus norvegicus [19])?
Answer: The Reaction time was 12.9 s.

Question: What about the LC50 [5] of the same compound?
Answer: Its LC50 is greater than 1000 µg/mL.

Question: And the Animals (Rattus norvegicus [6])?
Answer: Its Animals is 20%.

Question: And the inhibition in vivo at 100 mg/kg (Rattus norvegicus [20])?
Answer: Its inhibition in vivo at 100 mg/kg is 4%.

Question: And the Reaction time (Rattus norvegicus [21])?
Answer: Its Reaction time is 13.4 s.

Question: What about the LD50 [7] of the same compound?
Answer: Its LD50 is greater than 1000 mg/kg.

Question: For `COc1ccc2c(c1)c(CC(=O)O)c(C)n2C(=O)c1ccc(Cl)cc1` [INDOMETHACIN], which Animals (Rattus norvegicus [24]) is on record?
Answer: Its Animals is 100%.

Question: What about the inhibition in vivo at 5 mg/kg (Rattus norvegicus [25]) of the same compound?
Answer: Its inhibition in vivo at 5 mg/kg is 80%.

Question: And the No. of writhings (Rattus norvegicus [26])?
Answer: The No. of writhings was 4.

Question: What about the Edema variation (Rattus norvegicus [27]) of the same compound?
Answer: Its Edema variation is -10.85%.

Question: And the Edema variation (Rattus norvegicus [28])?
Answer: Its Edema variation is -15.4%.

Question: And the Animals (Rattus norvegicus [29])?
Answer: The Animals was 80%.

Question: What about the Reaction time (Rattus norvegicus [30]) of the same compound?
Answer: The Reaction time was 27.1 s.

Question: What about the Reaction time (Rattus norvegicus [31]) of the same compound?
Answer: Its Reaction time is 26.1 s.

Question: And the Reaction time (Rattus norvegicus [32])?
Answer: Its Reaction time is 28 s.

Question: And the Edema variation (Rattus norvegicus [33])?
Answer: Its Edema variation is -50.86%.

Question: And the LD50 [7]?
Answer: The LD50 was 15 mg/kg.
